No end group written: not given here. Some results are limits rather than exact numbers.

Consider 33 substances from paper PMC10878854, “Identification, structural characterization, and molecular dynamic simulation of ACE inhibitory peptides in whey hydrolysates from Chinese Rushan cheese by-product” (Food Chemistry: X, 2024).

Test system in the first data set: not given
Experiment: not given
Conditions: not given
H-FDRPFL-OH: the β-turn content turned out to be 39.3%.

For H-KWEKPF-OH, the β-turn content was found to be 41.7%.

Test system in a further data set: not given
Experiment: not given
Conditions: not given
The source holds these as a separate data set.
The substance H-FDRPFL-OH gave a α-helix content of 22.4%.

The substance H-KWEKPF-OH came in with a α-helix content of 20.2%.

Test system in another data set: not given
Experiment: not given
Conditions: not given
The source holds these as a separate data set.
As to H-FDRPFL-OH, the β-sheet content amounted to 38.3%.

The substance H-KWEKPF-OH showed a β-sheet content of 38%.

Another data set concerns the target T1, ACE (Oryctolagus cuniculus, UniProt P12822).
T1 sequence (P12822 34-1310): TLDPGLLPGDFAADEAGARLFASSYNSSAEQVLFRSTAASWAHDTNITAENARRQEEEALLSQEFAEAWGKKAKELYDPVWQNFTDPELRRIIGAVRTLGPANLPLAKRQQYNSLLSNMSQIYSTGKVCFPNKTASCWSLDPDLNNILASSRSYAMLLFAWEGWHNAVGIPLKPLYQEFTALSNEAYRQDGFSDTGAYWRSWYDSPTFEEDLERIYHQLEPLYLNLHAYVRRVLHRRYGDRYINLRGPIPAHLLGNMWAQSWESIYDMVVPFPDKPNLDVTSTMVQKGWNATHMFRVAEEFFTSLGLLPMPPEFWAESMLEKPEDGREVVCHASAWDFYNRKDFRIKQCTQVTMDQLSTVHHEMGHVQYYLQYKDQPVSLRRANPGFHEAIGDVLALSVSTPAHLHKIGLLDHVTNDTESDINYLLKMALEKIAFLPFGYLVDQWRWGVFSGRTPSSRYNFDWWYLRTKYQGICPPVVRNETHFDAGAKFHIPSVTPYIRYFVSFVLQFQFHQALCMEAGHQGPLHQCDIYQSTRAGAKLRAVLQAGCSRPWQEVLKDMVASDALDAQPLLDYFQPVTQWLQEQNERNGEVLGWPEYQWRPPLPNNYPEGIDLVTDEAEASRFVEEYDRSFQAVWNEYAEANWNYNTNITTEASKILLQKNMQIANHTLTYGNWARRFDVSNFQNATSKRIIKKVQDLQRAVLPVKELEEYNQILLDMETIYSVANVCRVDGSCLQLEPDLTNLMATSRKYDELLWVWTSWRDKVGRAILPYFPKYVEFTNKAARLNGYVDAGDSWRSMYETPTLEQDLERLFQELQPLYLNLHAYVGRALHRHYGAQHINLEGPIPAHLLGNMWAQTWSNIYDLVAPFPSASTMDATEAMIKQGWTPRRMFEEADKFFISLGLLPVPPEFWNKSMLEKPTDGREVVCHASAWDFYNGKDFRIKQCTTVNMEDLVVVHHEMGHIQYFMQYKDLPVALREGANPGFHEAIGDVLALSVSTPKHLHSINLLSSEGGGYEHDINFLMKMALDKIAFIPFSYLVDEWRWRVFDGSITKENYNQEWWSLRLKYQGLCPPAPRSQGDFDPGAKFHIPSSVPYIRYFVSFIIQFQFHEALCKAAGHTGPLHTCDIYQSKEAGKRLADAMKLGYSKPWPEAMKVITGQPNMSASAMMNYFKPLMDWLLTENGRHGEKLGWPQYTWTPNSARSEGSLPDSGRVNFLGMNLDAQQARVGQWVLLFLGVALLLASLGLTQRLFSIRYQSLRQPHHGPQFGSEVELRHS
As to the kind of experiment: In-vitro ACE inhibitory activity (HHL substrate, hippuric acid absorbance at 228 nm). Particulars: synthetic peptides; 5 mM HHL, 25 mU/mL ACE, 37 °C 30 min, absorbance 228 nm; calculated from regression equations; mean ± SD, n = 3. Format: biochemical. As for the experimental part:
ACE inhibitory activity of whey hydrolysate fractions with different MW was assessed by a method reported by [Cushman and Cheung (1971)]. In brief, 30 μL of whey hydrolysate fraction was added to 80 μL of 5 mM HHL and incubated at 37 °C for 10 min. Then, 20 μL of 25 mU/ mL ACE was added to the mixture. The reaction was performed at 37 °C for 30 min and then stopped by adding 250 μL of 1 M HCl. Subsequently, 1.7 mL of ethyl acetate was added to the mixture to extract the released hippuric acid. After vigorous stirring for 10 s, the samples were submitted to centrifugation (TLG20M, Changsha Maijiasen Instrument Equipment Co., Ltd., China) at 5,000 rcf at 4 °C for 15 min. Then 1.4 mL of the organic phase was transferred to a fresh test tube. Ethyl acetate was evaporated by placing samples in a boiling water bath. The residue was dissolved in 3 mL of deionized water, and absorbance was measured at 228 nm by enzyme marker (Multiskan FC, Thermo Fisher Scientific). The following formula was used to calculate ACE inhibition rate: ACE-inhibition rate\%:[1-(C-D)/(A-B)]×100% Where A represents the absorbance with ACE but without the sample; B the absorbance without ACE and the sample; C the absorbance in the presence of ACE and the sample; and D the absorbance with the sample but without ACE.
For DDFFHR [DDFFHR], the IC50 (in general, the concentration that inhibits the measured activity by half) was more than 1200 µM.

Turning to GKWEKPF [GKWEKPF], the concentration for half-maximal inhibition (IC50) is more than 1120 µM.

Take YDFYPR [YDFYPR]: the IC50 is more than 1160 µM.

Test system in another data set: not given
Experiment: not given
Particulars: 90 % homology to known functional peptides; ref BIOPEP, EROP-Moscow, MBPDB databases; cited from earlier work. The text has this: Supplement mmc2.doc, table 1: Table S2. Bioactive peptides identified in Rushan cheese whey hydrolysates (RCWH). | column: Potential bioactive
Take DKVGINY: the Potential bioactive entry is “ACE inhibitor”.

For SKVLPVPQ, the Potential bioactive entry is listed as “ACE inhibitor”.

As for YPFPGPIP, the Potential bioactive result is “ACE inhibitor, Antioxidative”.

In the case of DKVGINYW, the Potential bioactive result is on record as “ACE inhibitor”.

In the case of KVLPVPQK, the Potential bioactive entry is given as “ACE inhibitor, Antioxidative”.

Regarding VYPFPGPIP, the Potential bioactive entry is listed as “Antihypertensive”.

As to YPFPGPI, the Potential bioactive entry is listed as “ACE inhibitor, Antioxidative, Anticancer”.

With AVPYPQR, the Potential bioactive entry is listed as “ACE inhibitor, Antimicrobial, Antioxidative”.

Regarding MAIPPKK, the Potential bioactive result is “ACE inhibitor”.

As for LKPTPEGDLE, the Potential bioactive entry is recorded as “Dipeptidyl peptidase IV inhibitor”.

As to VYPFPGPI, the Potential bioactive result is recorded as “Antihypertensive”.

Turning to PFPGPIPN, the Potential bioactive entry is “ACE inhibitor”.

Take DKIHPF: the Potential bioactive result is on record as “ACE inhibitor”.

For another data set, the target named is T1, ACE.
Experiment: not given
Conditions: ACEIPs with mixed inhibitory patterns; ref Chen et al., 2020; Xie et al., 2022; cited from earlier work.
As to “VSLPEW [literature mixed-pattern ACEIP derived from alpha-lactalbumin]”, the ACE inhibition pattern result is on record as “mixed”.

Take “SLPEW [literature mixed-pattern ACEIP derived from alpha-lactalbumin]”: the ACE inhibition pattern result is recorded as “mixed”.

Turning to “LSGYGP [literature mixed-pattern ACEIP derived from tilapia]”, the ACE inhibition pattern result is on record as “mixed”.

Staying with this data set, now noted: food-derived non-competitive ACEIPs; ref Xie et al., 2022; Paisansak et al., 2021; cited from earlier work.
For the substance VGINYW, the ACE inhibition pattern entry was “non-competitive”.

With GYGGVSLPEW, the ACE inhibition pattern result is reported as “non-competitive”.

Consider KIGSRSRFDVT, for which the ACE inhibition pattern entry is on record as “non-competitive”.

As for GVSLPEW, the ACE inhibition pattern entry is given as “non-competitive”.

Staying with this data set, now noted: peptides derived from eel bone; ref Shao, 2022; cited from earlier work.
On to GPSGAPGPR, for which the “IC50 (ACE inhibitory activity)” value was 1022 µg/mL.

As to PMGPR, the “IC50 (ACE inhibitory activity)” value was 1470 µg/mL.

Consider GPAGPR, for which the “IC50 (ACE inhibitory activity)” value was 1246 µg/mL.

Turning to GGPGPSGPR, the “IC50 (ACE inhibitory activity)” value was 758 µg/mL.

In the case of GPMGPR, the “IC50 (ACE inhibitory activity)” value is 2247 µg/mL.

In the case of GPIGPPGPR, the “IC50 (ACE inhibitory activity)” value was 1441 µg/mL.

The same data set, now with this note: peptides derived from large yellow croaker; ref Li, 2021; cited from earlier work.
On to LLAGGW, for which the “IC50 (ACE inhibitory activity)” value is 490 µg/mL.

For LGYSF, the “IC50 (ACE inhibitory activity)” value is 510 µg/mL.
